Data on 11 compounds can be found in US20240352046A1, “ECTONUCLEOTIDE PYROPHOSPHATASE-PHOSPHODIESTERASE-1 (ENPP1) INHIBITORS AND USES THEREOF” (1cBio, Inc., priority 2020, published 2024).

The target of experiment [1] is ENPP-1 (Ectonucleotide Pyrophosphatase/Phosphodiesterase 1) (Homo sapiens (Human), UniProt P22413). The experiment can be described thus: ENPP1 inhibition assay (AMP Glo, cGAMP substrate). The settings on record: cGAMP 20 μM substrate, ENPP1 1 nM. Type of experiment: biochemical.
Sequence of ENPP-1 (Ectonucleotide Pyrophosphatase/Phosphodiesterase 1) (P22413 whole entry): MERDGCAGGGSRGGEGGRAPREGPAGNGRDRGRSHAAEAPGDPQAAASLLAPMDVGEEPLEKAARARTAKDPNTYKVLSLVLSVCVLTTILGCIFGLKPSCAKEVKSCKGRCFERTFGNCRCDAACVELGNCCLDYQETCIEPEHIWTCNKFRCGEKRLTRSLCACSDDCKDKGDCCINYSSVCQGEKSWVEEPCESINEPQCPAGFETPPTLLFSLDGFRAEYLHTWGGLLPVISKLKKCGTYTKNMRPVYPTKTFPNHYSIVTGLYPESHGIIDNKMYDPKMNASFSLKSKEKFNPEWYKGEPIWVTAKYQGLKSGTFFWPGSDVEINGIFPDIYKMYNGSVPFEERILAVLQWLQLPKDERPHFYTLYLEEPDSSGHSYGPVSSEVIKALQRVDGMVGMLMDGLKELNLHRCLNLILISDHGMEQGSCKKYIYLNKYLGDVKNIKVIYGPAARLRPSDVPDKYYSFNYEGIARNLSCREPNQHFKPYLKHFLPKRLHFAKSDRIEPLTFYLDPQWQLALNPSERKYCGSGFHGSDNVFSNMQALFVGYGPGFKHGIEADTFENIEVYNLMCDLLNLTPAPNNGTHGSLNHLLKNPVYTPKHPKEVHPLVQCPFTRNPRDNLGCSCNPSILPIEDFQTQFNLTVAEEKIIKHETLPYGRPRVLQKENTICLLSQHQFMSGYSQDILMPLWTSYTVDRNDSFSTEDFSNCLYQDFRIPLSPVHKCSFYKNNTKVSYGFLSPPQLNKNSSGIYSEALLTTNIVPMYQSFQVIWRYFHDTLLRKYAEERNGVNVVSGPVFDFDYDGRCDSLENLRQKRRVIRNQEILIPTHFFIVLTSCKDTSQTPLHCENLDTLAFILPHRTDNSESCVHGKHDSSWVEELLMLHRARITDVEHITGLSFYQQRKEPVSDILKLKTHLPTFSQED
In experiment [2] the test system is IP-10 release in differentiated THP-1 cells. Briefly: IP-10 cytokine release assay in THP-1 cell lines. Type of experiment: cell-based, Human. The following applies: for EC50: Homo sapiens, IP-10 release over cGAMP induced release; for Percent release IP-10 (Absolute): differentiated THP-1. The procedure: Percent release of Interferon gamma-induced protein 10 (IP-10) was determined in acute monocytic leukemia (THP-1; ATCC® TIB-202™) cell line. THP-1 cells (0.2×10^6 cells/well) were differentiated using phorbol 12-myristate 13-acetate (PMA, 10 nM (final concentration); Cat #P8139, Sigma) and incubated for 24 h at 37° C., 5% CO2 in an incubator (cell culture conditions) prior to treating with serial dilutions of compounds (3 fold, 6 point dose response starting at 10 μM). After treatment with the compounds cells were further incubated for 2 h under cell culture conditions and then exposed to 2′,3′-cGAMP (c-GAMP, 1 μM (final concentration); Cat #SML 1229, Sigma). Differentiated THP-1 cells were further cultured for 24 h after which the supernatant was harvested, and ELISA was performed as per the manufacturer's protocol (BD optEIA Human IP-10 ELISA Set; Cat #550926 & 550534, BD Biosciences). Plates were read in Biotek plate reader by measuring absorbance at 450 nm.
The release of absolute IP-10 in differentiated THP-1 by compounds in the presence of cGAMP was quantified with reference to standard after subtracting blank (negative) reading from the test readings. The absolute release of IP-10 in the presence of cGAMP (1 μM) is given in the bar-graph (FIG.-1) and in the table-B2a.
The release of IP-10 in differentiated THP-1 by compounds over cGAMP induced release at four different concentrations of cGAMP (1, 5, 10 & 30 μM) was quantified with reference to standard by normalizing the blank (negative) subtracted test readings from average of cGAMP activated cells at that particular concentration. The EC50's was calculated by fitting the curve to the “four-parameter variable slope logistic model” using Prism Graph Pad.

For experiment [3], the system named is IFN-β release in differentiated THP-1 cells. Briefly: IFN-β cytokine release assay in THP-1. Type of experiment: cell-based. The settings on record: Homo sapiens, read-out: EC50 (μM) @ 1 μM of cGAMP; IFN-β release over cGAMP induced release, THP-1, 1 μM cGAMP. The procedure: Percent release of Interferon Beta (IFN-03) was determined in acute monocytic leukemia (THP-1; ATCC® TIB-202™) cell line. THP-1 cells (0.3×10^6 cells/well) were differentiated using phorbol 12-myristate 13-acetate (PMA, 50 ng/mL; Cat #P8139, Sigma) and incubated for 24 h at 37° C., 5% CO2 in an incubator (cell culture conditions) prior to treating with serial dilutions of compounds (3 fold, 5 point dose response starting at […]). After treatment with the compounds cells were further incubated for 2 h under cell culture conditions and then exposed to 2′,3′-cGAMP (c-GAMP, 1 μM; Cat #SML 1229, Sigma). Differentiated THP-1 cells were further cultured for 6 h after which the supernatant was harvested, and ELISA was performed as per the manufacturer's protocol (Human IFN-beta Quantikine ELISA Kit; Cat #DIFNB0, R&D systems). Plates were read in Biotek plate reader by measuring absorbance at 450 nm.

Experiment [4] relates to IFN-β release in mouse splenocytes. The experiment can be described thus: IFN-β in mouse splenocyte assay. Type of experiment: cell-based, Balb/c mice. The settings on record: activated Balb/c splenocytes, cGAMP 1 μM, 24 hr. The procedure: Percent release of Interferon Beta (IFN-03) is determined in mouse splenocytes isolated from Balb/c mice. Mouse splenocytes ([…] cells/well) were activated with Anti-mouse CD3e (3 μg/mil, coated overnight at 4° C.; Cat #14-0032-82, eBioscience) and then incubated with Anti-mouse CD28 (3 μg/ml soluble; Cat #16-0289-81, eBiosciences) for 24 h at 37° C., 5% CO2 in an incubator (cell culture conditions) prior to treating them with serial dilutions of compounds (3 fold, 6 point dose response starting at 30 μM). After treatment with the compounds cells are further incubated for 2 h under cell culture conditions and then treated with 2′,3′-cGAMP (c-GAMP, 1 μM; Cat #SML 1229, Sigma). Splenocytes were further incubated under cell culture conditions for 24 hr after which the supernatant was harvested, and ELISA was performed as per the manufacturer's protocol (mIFN-β kit; Cat #MIFNB0 & DY008, R&D Systems). Plates were read in Biotek plate reader by measuring absorbance at 450 nm.

Experiment [5] relates to IP-10 release in mouse splenocytes. Briefly: IP-10 in mouse splenocyte assay. Type of experiment: cell-based, Balb/c mice. The settings on record: activated Balb/c splenocytes, cGAMP 1 μM, 48 hr. As for the experimental part:
Percent release of Interferon gamma-induced protein 10 (IP-10) was determined in mouse splenocytes isolated from Balb/c mice. Mouse splenocytes (2.5*10^5 cells/well) were activated with Anti-mouse CD3e (3 μg/ml, coated overnight at 4° C.; Cat #14-0032-82, eBioscience) and then incubated with Anti-mouse CD28 (3 μg/ml soluble; Cat #16-0289-81, eBiosciences) for 24 h at 37° C., 5% CO2 in an incubator (cell culture conditions) prior to treating them with serial dilutions of compounds (3 fold, 6 point dose response starting at 30 μM). After treatment with the compounds cells were further incubated for 2 h under cell culture conditions and then treated with 2′,3′-cGAMP (c-GAMP, 1 μM; Cat #SML 1229, Sigma). Splenocytes were further incubated under cell culture conditions for 48 hr after which the supernatant was harvested, and ELISA was performed as per the manufacturer's protocol (mIP-10 kit; Cat #DY466-05 & DY008, R&D Systems). Plates were read in Biotek plate reader by measuring absorbance at 450 nm.

The mark [6] stands for this setting: read-out: EC50 (μM)@ 1 μM of cGAMP, THP-1, 1 μM cGAMP.

SMILES strings stand for the structures. pIC50: −log10 of the molar value. Where two headings read alike, the source gives them in different places.

The term IC50 denotes the midpoint of a concentration-inhibition curve. The low end stands for greater potency in that assay, the high end for weaker potency in that assay. Usually EC50 stands for the concentration giving half of the maximal effect. For orientation: pIC50 means −log10 of the IC50, conventionally taken in molar units. For the compound `COc1cc2ncnc(N3CC(CCNS(N)(=O)=O)C3)c2cc1OC` [Compound 1.1, (2-(1-(6,7-dimethoxyquinazolin-4-yl)azetidin-3-yl)ethyl)aminisulfonamide], half-maximal inhibition in experiment [1] (IC50) required 0.008 µM. Further, the EC50 was 0.308 µM in experiment [2] (setting [6]); 0.471 µM in experiment [2] (read-out: EC50 (μM)@ 10 μM of cGAMP, THP-1, 10 μM cGAMP); 0.624 µM in experiment [2] (read-out: EC50 (μM)@ 30 μM of cGAMP, THP-1, 30 μM cGAMP); less than 0.12 µM in experiment [2] (THP-1, 5 μM cGAMP, read-out: EC50 (μM)@ 5 μM of cGAMP); less than 3.35 µM in experiment [3]. Further, the “Percent release IP-10 (Absolute)” value in experiment [2] (cGAMP (1 μM) + compound 0.37 μM) is 8.9%; in experiment [2] (cGAMP (1 μM) + compound 1.11 μM), 11.4%; in experiment [2] (cGAMP (1 μM) + compound 3.33 μM) it was 13.1%; in experiment [2] (cGAMP (1 μM) + compound 10 μM), 18.3%; in experiment [2] (cGAMP (1 μM) + compound […]), 7.0%. The values for the pIC50 in experiment [4] and in experiment [5] were 5.51 and 5.76, respectively.
Consider `COc1cc2ncnc(N3CC(CCNS(C)(=O)=O)C3)c2cc1OC` [Compound 1.6, N-(2-[1-(6,7-dimethoxyquinazolin-4-yl)azetidin-3-yl]ethyl)methanesulfonamide], for which the IC50 in experiment [1] worked out at 0.09 µM. Moreover, the EC50 in experiment [2] (setting [6]) is 7.78 µM; in experiment [3] it was greater than 30 µM.
For `Cc1ccn2ncnc(N3CC(CCNS(N)(=O)=O)C3)c12` [Compound 1.20, 4-(3-(2-sulfamoylaminoethyl)azetidine-1-yl)-5-methylpyrrolo[1,2-f][1,2,4]triazine] the same measures were 0.07 µM, 5.73 µM and greater than 30 µM.
The corresponding values for `COc1cc2nc(-c3ccccc3)nc(N3CC(CCNS(N)(=O)=O)C3)c2cc1OC` [Compound 1.21, 4-(3-(2-sulfamoylaminoethyl)azetidine-1-yl)-6,7-dimethoxy-2-phenylquinazoline] are 0.092 µM, 1.88 µM and greater than 30 µM.
For `COc1cc2ncnc(N3CC(CCN(C4CC4)S(N)(=O)=O)C3)c2cc1OC` [Compound 1.23, 4-(3-(2-((sulfamoyl)(cyclopropyl)amino)ethyl)azetidine-1-yl)-6,7-dimethoxyquinazoline] the same measures were 0.029 µM, 7.87 µM and greater than 30 µM.
On to `COc1cc2ncnc(N3CC(CC(=O)NO)C3)c2cc1OC` [Compound 1.28, 2-(1-(6,7-dimethoxyquinazolin-4-yl)azetidin-3-yl)-N-hydroxyacetamide], for which 0.026 µM corresponded to half-maximal inhibition in experiment [1] (IC50). Also, the EC50 in experiment [2] (setting [6]) is 9.56 µM; in experiment [3] it was greater than 30 µM.
The corresponding values for `COc1cc2ncnc(N3CC(CCB(O)O)C3)c2cc1OC` [Compound 1.30, 2-(1-(6,7-dimethoxyquinazolin-4-yl)azetidin-3-yl)ethylboronic acid] are 0.019 µM, less than 0.12 µM and greater than 30 µM.
Consider `COc1cc2ncnc(N3CC(CCCS(N)(=O)=O)C3)c2cc1OC` [Compound 1.39, 3-(1-(6,7-dimethoxyquinazolin-4-yl)azetidin-3-yl)propane-1-sulfonamide], for which the results for the EC50 in experiment [2] (setting [6]) and in experiment [3] were 3.26 µM and greater than 30 µM, respectively.
As for `COc1cc2ncnc(N3CC(C(C)CNS(N)(=O)=O)C3)c2cc1OC` (stereo not shown) [Compound 1.70, 4-3-(3-sulfamoylaminopropan-2-yl)azetidin-1-yl-6,7-dimethoxyquinazoline], in experiment [1], the IC50 was determined as 0.024 µM. The half-maximal effective concentration (EC50) in experiment [2] (setting [6]) is 0.304 µM; in experiment [3], 2.82 µM.
As to `Cc1nc(N2CC(CCNS(N)(=O)=O)C2)c2c(C)ccn2n1` [Compound 1.71, 4-(3-(2-sulfamoylaminoethyl)azetidine-1-yl)-2,5-di-methylpyrrolo[1,2-f][1,2,4]triazine], the IC50 in experiment [1] was greater than 3 µM. Besides, the EC50 in experiment [3] was greater than 30 µM.
In experiment [1], `Cc1cc(Cl)n2ncnc(N3CC4(CC(N(C)S(N)(=O)=O)C4)C3)c12` [Compound 1.76, N-[2-(7-chloro-5-methylpyrrolo[2,1-f][1,2,4]triazin-4-yl)-2-azaspiro[3.3]hept-6-yl]-N-methylsulfuric diamide] showed a half-inhibitory concentration (IC50) of 0.084 µM. Further, the results for the EC50 in experiment [2] (setting [6]) and in experiment [3] were 0.071 µM and less than 0.12 µM, respectively. Moreover, the pIC50 is 5.49 in experiment [4] and 5.75 in experiment [5].
